The results in this text go back to patent publication US20250115569A1, “SULFONAMIDE COMPOUNDS FOR THE TREATMENT OF NEUROLOGICAL CONDITIONS” (LARIO THERAPEUTICS LIMITED, priority 2021, published 2025).

Sequence of Cav2.3 (Q15878 whole entry, looked up): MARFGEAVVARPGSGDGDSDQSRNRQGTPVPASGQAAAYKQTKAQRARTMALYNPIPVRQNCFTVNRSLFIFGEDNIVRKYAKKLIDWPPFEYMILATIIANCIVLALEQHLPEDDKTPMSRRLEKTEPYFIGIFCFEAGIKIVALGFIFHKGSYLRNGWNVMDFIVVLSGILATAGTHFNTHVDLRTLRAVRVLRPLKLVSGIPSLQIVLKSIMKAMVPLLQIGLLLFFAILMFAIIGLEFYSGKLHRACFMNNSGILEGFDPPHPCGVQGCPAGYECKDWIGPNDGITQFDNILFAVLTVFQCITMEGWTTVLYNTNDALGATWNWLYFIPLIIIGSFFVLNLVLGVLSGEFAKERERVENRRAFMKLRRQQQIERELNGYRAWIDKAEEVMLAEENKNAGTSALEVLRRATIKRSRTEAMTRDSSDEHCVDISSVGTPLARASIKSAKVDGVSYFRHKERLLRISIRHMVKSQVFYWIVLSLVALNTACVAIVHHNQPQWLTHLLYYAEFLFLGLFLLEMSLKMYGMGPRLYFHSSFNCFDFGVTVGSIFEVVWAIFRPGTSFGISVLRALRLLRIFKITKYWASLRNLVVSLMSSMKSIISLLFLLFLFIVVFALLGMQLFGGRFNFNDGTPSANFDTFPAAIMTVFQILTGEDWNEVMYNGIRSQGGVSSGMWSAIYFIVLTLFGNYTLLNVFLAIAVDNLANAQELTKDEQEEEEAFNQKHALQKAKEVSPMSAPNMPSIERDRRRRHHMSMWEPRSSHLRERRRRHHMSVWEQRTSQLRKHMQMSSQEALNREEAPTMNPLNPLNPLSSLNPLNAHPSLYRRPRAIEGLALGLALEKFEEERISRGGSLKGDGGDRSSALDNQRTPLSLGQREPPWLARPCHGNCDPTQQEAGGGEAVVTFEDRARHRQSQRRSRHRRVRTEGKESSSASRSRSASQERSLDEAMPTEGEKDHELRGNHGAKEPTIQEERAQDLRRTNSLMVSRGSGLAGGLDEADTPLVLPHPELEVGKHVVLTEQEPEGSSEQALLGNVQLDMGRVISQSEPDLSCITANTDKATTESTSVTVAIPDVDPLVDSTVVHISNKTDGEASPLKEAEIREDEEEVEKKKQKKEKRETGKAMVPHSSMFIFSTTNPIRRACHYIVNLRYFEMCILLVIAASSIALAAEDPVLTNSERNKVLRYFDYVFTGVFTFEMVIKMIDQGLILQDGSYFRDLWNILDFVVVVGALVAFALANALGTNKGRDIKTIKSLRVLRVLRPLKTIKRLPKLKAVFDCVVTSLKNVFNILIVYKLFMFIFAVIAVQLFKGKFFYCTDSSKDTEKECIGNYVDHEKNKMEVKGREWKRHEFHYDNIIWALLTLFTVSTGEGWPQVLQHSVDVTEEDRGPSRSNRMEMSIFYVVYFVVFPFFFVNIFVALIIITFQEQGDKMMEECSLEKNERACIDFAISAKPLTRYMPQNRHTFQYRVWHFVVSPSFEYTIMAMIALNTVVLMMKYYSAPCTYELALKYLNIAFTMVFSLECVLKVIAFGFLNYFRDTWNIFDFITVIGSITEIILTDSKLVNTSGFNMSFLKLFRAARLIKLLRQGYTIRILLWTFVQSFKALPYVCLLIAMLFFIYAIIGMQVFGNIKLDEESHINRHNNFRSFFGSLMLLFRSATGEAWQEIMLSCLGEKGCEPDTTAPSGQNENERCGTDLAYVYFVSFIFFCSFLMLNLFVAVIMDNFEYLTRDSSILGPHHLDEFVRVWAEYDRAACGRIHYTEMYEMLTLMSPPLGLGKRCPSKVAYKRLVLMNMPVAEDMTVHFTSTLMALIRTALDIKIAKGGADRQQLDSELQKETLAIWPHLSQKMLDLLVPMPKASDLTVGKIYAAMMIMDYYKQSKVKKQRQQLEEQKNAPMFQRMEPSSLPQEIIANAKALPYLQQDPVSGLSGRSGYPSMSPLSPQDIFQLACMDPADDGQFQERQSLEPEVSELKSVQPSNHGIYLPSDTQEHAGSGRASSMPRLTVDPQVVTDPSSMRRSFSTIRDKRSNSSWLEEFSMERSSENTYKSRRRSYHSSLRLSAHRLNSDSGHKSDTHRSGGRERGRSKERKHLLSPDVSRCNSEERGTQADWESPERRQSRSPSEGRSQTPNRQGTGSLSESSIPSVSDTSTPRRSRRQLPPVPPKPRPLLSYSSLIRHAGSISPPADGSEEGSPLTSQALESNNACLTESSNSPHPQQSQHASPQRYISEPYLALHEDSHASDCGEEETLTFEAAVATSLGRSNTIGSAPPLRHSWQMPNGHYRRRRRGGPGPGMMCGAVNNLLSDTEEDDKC

This experiment addresses Cav2.3 (Homo sapiens, UniProt Q15878). As to the kind of experiment: Human Cav2.3 channel calcium-influx assay. It counts as cell-based. The following applies: Fluo8 fluorescence, HEK-293 T-Rex/Kir2.1/Cav2.3e cells, without pluronic acid, read-out: Cav2.3 (pIC50) (converted). Put shortly:
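Signal = peak fluorescence (5–130 s) minus baseline (1–2 s), normalized to neutral (0) and inhibitor (−100) controls as % effect. Depolarization used final 20 mM KCl, 130 mM NaCl, 2 mM CaCl2, after 3 min RT compound exposure (30 μM top, half-log, 8 points, 0.3% DMSO) in doxycycline-induced HEK-293 T-Rex/Kir2.1/Cav2.3e-β4-α2δ1 cells with Fluo8 NW.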
As to `CCN([C@H](c1ccc(F)cc1)C(F)(F)F)S(=O)(=O)c1ccn2nncc2c1` [Example 145, (R)—N-ethyl-N-(2,2,2-trifluoro-1-(4-fluorophenyl)ethyl)-[1,2,3]triazolo[1,5-a]pyridine-5-sulfonamide], the IC50 was 0.0251 µM. For `CCN([C@H](c1ccc(F)cc1)C(F)(F)F)S(=O)(=O)c1ccc2nccn2c1` [Example 146, (R)—N-ethyl-N-(2,2,2-trifluoro-1-(4-fluorophenyl)ethyl)imidazo[1,2-a]pyridine-6-sulfonamide], the IC50 is 0.0174 µM. Then `CCN([C@H](c1ccc(F)cc1)C(F)(F)F)S(=O)(=O)c1cnc2nsnc2c1` [Example 147, (R)—N-ethyl-N-(2,2,2-trifluoro-1-(4-fluorophenyl)ethyl)-[1,2,5]thiadiazolo[3,4-b]pyridine-6-sulfonamide], with 0.158 µM; and `CCN([C@H](c1ccc(F)cc1)C(F)(F)F)S(=O)(=O)c1cc2ncccn2n1` [Example 148, (R)—N-ethyl-N-(2,2,2-trifluoro-1-(4-fluorophenyl)ethyl)pyrazolo[1,5-a]pyrimidine-2-sulfonamide], with 0.692 µM.

Turning to `CCN([C@H](c1ccc(F)cc1)C(F)(F)F)S(=O)(=O)c1cnc2ncsc2c1` [Example 151, (R)—N-ethyl-N-(2,2,2-trifluoro-1-(4-fluorophenyl)ethyl)thiazolo[4,5-b]pyridine-6-sulfonamide], the IC50 was 0.17 µM. Then `CCN([C@H](c1ccc(F)cc1)C(F)(F)F)S(=O)(=O)c1nc2ccccn2n1` [Example 153, (R)—N-ethyl-N-(2,2,2-trifluoro-1-(4-fluorophenyl)ethyl)-[1,2,4]triazolo[1,5-a]pyridine-2-sulfonamide], with 1.58 µM; and `CCN([C@H](c1ccc(F)cc1)C(F)(F)F)S(=O)(=O)c1ccc2sc(N)nc2c1` [Example 155, (R)-2-amino-N-ethyl-N-(2,2,2-trifluoro-1-(4-fluorophenyl)ethyl)benzo[d]thiazole-5-sulfonamide], with 1.91 µM. On to `CCN([C@H](c1ccc(F)cc1)C(F)(F)F)S(=O)(=O)c1cnc2nc[nH]c2c1` [Example 156, (R)—N-ethyl-N-(2,2,2-trifluoro-1-(4-fluorophenyl)ethyl)-1H-imidazo[4,5-b]pyridine-6-sulfonamide], for which the IC50 was 0.204 µM. Then `CCN([C@H](c1ccc(F)cc1)C(F)(F)F)S(=O)(=O)c1ccc2nc(C)c(Cl)n2n1` [Example 157, (R)-3-chloro-N-ethyl-2-methyl-N-(2,2,2-trifluoro-1-(4-fluorophenyl)ethyl)imidazo[1,2-b]pyridazine-6-sulfonamide], with 3.02 µM. As for `CCN([C@H](c1ccc(F)cc1)C(F)(F)F)S(=O)(=O)c1ccn2nnnc2c1` [Example 158, (R)—N-ethyl-N-(2,2,2-trifluoro-1-(4-fluorophenyl)ethyl)tetrazolo[1,5-a]pyridine-7-sulfonamide], the IC50 is 0.275 µM.

With `CCN([C@H](c1ccc(F)cc1)C(F)(F)F)S(=O)(=O)c1ccc2ncn(C)c2c1` [Example 164, (R)—N-ethyl-1-methyl-N-(2,2,2-trifluoro-1-(4-fluorophenyl)ethyl)-1H-benzo[d]imidazole-6-sulfonamide], the IC50 is 0.174 µM. For `CCN([C@H](c1ccc(F)cc1)C(F)(F)F)S(=O)(=O)c1cnc2ccnn2c1` [Example 165, (R)—N-ethyl-N-(2,2,2-trifluoro-1-(4-fluorophenyl)ethyl)pyrazolo[1,5-a]pyrimidine-6-sulfonamide], the IC50 was 0.123 µM. Take `CCN([C@H](c1ccc(F)cc1)C(F)(F)F)S(=O)(=O)c1cnc2[nH]nnc2c1` [Example 166, (R)—N-ethyl-N-(2,2,2-trifluoro-1-(4-fluorophenyl)ethyl)-1H-[1,2,3]triazolo[4,5-b]pyridine-6-sulfonamide]: the IC50 was 0.794 µM.

Regarding `CCN([C@H](c1ccc(F)cc1)C(F)(F)F)S(=O)(=O)c1cc2cn[nH]c2cn1` [Example 167, (R)—N-ethyl-N-(2,2,2-trifluoro-1-(4-fluorophenyl)ethyl)-1H-pyrazolo[3,4-c]pyridine-5-sulfonamide], the IC50 was 0.331 µM. Regarding `CCN([C@H](c1ccc(F)cc1)C(F)(F)F)S(=O)(=O)c1ccc2nnc(C)n2n1` [Example 168, (R)—N-ethyl-3-methyl-N-(2,2,2-trifluoro-1-(4-fluorophenyl)ethyl)-[1,2,4]triazolo[4,3-b]pyridazine-6-sulfonamide], the IC50 was 2.19 µM.

For the compound `CCN([C@H](c1ccc(F)cc1)C(F)(F)F)S(=O)(=O)c1ccc2nnc(C(F)(F)F)n2n1` [Example 169, (R)—N-ethyl-N-(2,2,2-trifluoro-1-(4-fluorophenyl)ethyl)-3-(trifluoromethyl)-[1,2,4]triazolo[4,3-b]pyridazine-6-sulfonamide], the IC50 is 5.75 µM. Regarding `CN([C@H](c1ccc(F)cc1)C(F)(F)F)S(=O)(=O)c1ccc2nnc(C(F)(F)F)n2n1` [Example 170, (R)—N-methyl-N-(2,2,2-trifluoro-1-(4-fluorophenyl)ethyl)-3-(trifluoromethyl)-[1,2,4]triazolo[4,3-b]pyridazine-6-sulfonamide], the IC50 was 13.2 µM. Next, `CCN([C@H](c1ccc(F)cc1)C(F)(F)F)S(=O)(=O)c1nn(CC)c2cccnc12` [Example 173, (R)—N,1-diethyl-N-(2,2,2-trifluoro-1-(4-fluorophenyl)ethyl)-1H-pyrazolo[4,3-b]pyridine-3-sulfonamide]: 11.2 µM. Take `CCN([C@H](c1ccc(F)cc1)C(F)(F)F)S(=O)(=O)c1n[nH]c2cccnc12` [Example 174, (R)—N-ethyl-N-(2,2,2-trifluoro-1-(4-fluorophenyl)ethyl)-1H-pyrazolo[4,3-b]pyridine-3-sulfonamide]: the IC50 was 18.6 µM.

Regarding `CCN([C@H](c1ccc(F)cc1)C(F)(F)F)S(=O)(=O)c1ccnc2[nH]ccc12` [Example 175, (R)—N-ethyl-N-(2,2,2-trifluoro-1-(4-fluorophenyl)ethyl)-1H-pyrrolo[2,3-b]pyridine-4-sulfonamide], the IC50 was 0.302 µM. Turning to `CCN([C@H](c1ccc(F)cc1)C(F)(F)F)S(=O)(=O)c1cnc2cccnn12` [Example 176, (R)—N-ethyl-N-(2,2,2-trifluoro-1-(4-fluorophenyl)ethyl)imidazo[1,2-b]pyridazine-3-sulfonamide], the IC50 was 0.0912 µM.

Take `CCN([C@H](c1ccc(F)cc1)C(F)(F)F)S(=O)(=O)c1cnc2ncccn12` [Example 177, (R)—N-ethyl-N-(2,2,2-trifluoro-1-(4-fluorophenyl)ethyl)imidazo[1,2-a]pyrimidine-3-sulfonamide]: the IC50 was 0.0339 µM. On to `CN([C@H](c1ccc(Cl)cc1)C(F)(F)F)S(=O)(=O)c1cnc2nsnc2c1` [Example 179, (R)—N-(1-(4-chlorophenyl)-2,2,2-trifluoroethyl)-N-methyl-[1,2,5]thiadiazolo[3,4-b]pyridine-6-sulfonamide], for which the IC50 was 0.661 µM.

Take `CCN([C@H](c1ccc(F)cc1)C(F)(F)F)S(=O)(=O)c1ccc2nc(C)cn2n1` [Example 180, (R)—N-ethyl-2-methyl-N-(2,2,2-trifluoro-1-(4-fluorophenyl)ethyl)imidazo[1,2-b]pyridazine-6-sulfonamide]: the IC50 is 0.447 µM. Consider `CCN([C@H](c1ccc(F)cc1)C(F)(F)F)S(=O)(=O)c1cc2cc[nH]c2cn1` [Example 181, (R)—N-ethyl-N-(2,2,2-trifluoro-1-(4-fluorophenyl)ethyl)-1H-pyrrolo[2,3-c]pyridine-5-sulfonamide], for which the IC50 is 0.537 µM. Turning to `CCN([C@H](c1ccc(F)cc1)C(F)(F)F)S(=O)(=O)c1cccc2[nH]ncc12` [Example 182, (R)—N-ethyl-N-(2,2,2-trifluoro-1-(4-fluorophenyl)ethyl)-1H-indazole-4-sulfonamide], the IC50 was 0.288 µM. Then `CN([C@H](c1ccc(F)cc1)C(F)(F)F)S(=O)(=O)c1cnc2ccnn2c1` [Example 183, (R)—N-methyl-N-(2,2,2-trifluoro-1-(4-fluorophenyl)ethyl)pyrazolo[1,5-a]pyrimidine-6-sulfonamide], with 0.24 µM; and `CCN([C@H](c1ccc(F)cc1)C(F)(F)F)S(=O)(=O)c1ccc2nc[nH]c2c1` [Example 185, (R)—N-ethyl-N-(2,2,2-trifluoro-1-(4-fluorophenyl)ethyl)-1H-benzo[d]imidazole-6-sulfonamide], with 0.155 µM; and `CN([C@H](c1ccc(Cl)cc1)C(F)(F)F)S(=O)(=O)c1cnc2ccccn12` [Example 187, (R)—N-(1-(4-chlorophenyl)-2,2,2-trifluoroethyl)-N-methylimidazo[1,2-a]pyridine-3-sulfonamide], with 0.0191 µM.

In the case of `CCN([C@H](c1ccc(F)cc1)C(F)(F)F)S(=O)(=O)c1ccc2[nH]ncc2n1` [Example 188, (R)—N-ethyl-N-(2,2,2-trifluoro-1-(4-fluorophenyl)ethyl)-1H-pyrazolo[4,3-b]pyridine-5-sulfonamide], the IC50 was 0.309 µM. Next, `CCN([C@H](c1ccc(F)cc1)C(F)(F)F)S(=O)(=O)c1ccc2[nH]nnc2c1` [Example 189, (R)—N-ethyl-N-(2,2,2-trifluoro-1-(4-fluorophenyl)ethyl)-1H-benzo[d][1,2,3]triazole-5-sulfonamide]: 0.166 µM. Consider `CCN([C@H](c1ccc(F)cc1)C(F)(F)F)S(=O)(=O)c1nn(CC)c2ncccc12` [Example 190, (R)—N,1-diethyl-N-(2,2,2-trifluoro-1-(4-fluorophenyl)ethyl)-1H-pyrazolo[3,4-b]pyridine-3-sulfonamide], for which the IC50 was 1 µM. Then `CN([C@H](c1ccc(Cl)cc1)C(F)(F)F)S(=O)(=O)c1ccn2ccnc2c1` [Example 194, (R)—N-(1-(4-chlorophenyl)-2,2,2-trifluoroethyl)-N-methylimidazo[1,2-a]pyridine-7-sulfonamide], with 0.24 µM.
